We go through 1 molecule from patent publication US12492195B2, “Preparation method for and crystal form of 3-aryloxy-3-five-membered heteroaryl-propylamine compound” (Zhangzhou Pien Tze Huang Pharmaceutical Co., Ltd., priority 2020, dated 2025).

One test deals with SD rats. Kind of test: SNL model in rats, mechanical hyperalgesia test. In kind it is in vivo. The conditions noted are these: 10 mg/kg by gavage, 1 hour after administration. The protocol:
Male SPF grade SD rats, weighed 150-180 g, were selected. Aseptic operation during surgery was performed. The animals were anesthetized with sodium pentobarbital (50 mg/kg, intraperitoneal injection). The surgical area of animal waist was shaved and the skin was disinfected three times with iodophor and 70% ethanol. After the skin was dried, the operation was started. Surgical knife was used to make a longitudinal incision at the back of the sacrum of the animal waist to expose the left paraspinal muscles, and distractor was used to separate muscle tissue to expose the spine. The left spinal nerves L5 and L6 were separated and ligated with a 6-0 silk thread, and the wound was sutured. […]
The animals were weighed to calculate the dosage. […] During the test, rapid paw withdrawal of animal was recorded as pain response. When the test fiber was removed from animal skin, the paw withdrawal of animal was also recorded as pain response. If animal moved or walked, the pain response was not recorded and the test was repeated. […]
Mechanical hyperalgesia was expressed as paw withdrawal threshold (PWT) in rat behavioral test, which was calculated with the following formula: 50% response threshold (g)=(10^(Xf+k))/10,000; • Xf=the final test fiber value used in the test; • k=table value; • =mean difference

A further test concerns the target T1, TRPV1 (Homo sapiens, UniProt Q8NER1).
T1 construct: expressed in transfected cells
Kind of test: Manual patch clamp detection on TRPV1 channel. The conditions noted are these: HEK293, Capsaicin-induced current. In kind it is cell-based. The protocol:
TRPV1 cells were cultured in a cell culture dish with a diameter of 35 mm, placed in a 37° C., 5% CO2 incubator, and passaged at a ratio of 1:5 every 48 hours. Medium formula: 90% DMEM (Invitrogen), 10% Fetal bovine serum (Gibco). 2 mM L-glutamine, 50 μg/mL Hygromycin B (Invitrogen) and 5 μg/mL Blasticidine HCl (Invitrogen). Before electrophysiological patch clamp experiments, the cell culture medium was replaced with medium containing 1 μg/mL Doxycycline for at least 16 hours to induce the expression of TRPV1.
On the day of the experiment, the cell culture medium was aspirated, the cell were rinsed once with extracellular fluid, and then 0.25% Trypsin-EDTA (Invitrogen) solution was added, and digested at room temperature for 1-2 minutes. The digestion solution was aspirated, the cell were resuspended with extracellular fluid, and transferred to the experimental dish for electrophysiological recording for further experiment. […]
HEK293 cells stably expressing TRP channels, the corresponding agonist-induced channel current was recorded by whole-cell patch clamp technique at room temperature. […] Clamp voltages and data recording were controlled and recorded by a computer using pClamp 11 software with the sampling frequency of 10 kHz and the filtering frequency of 2 kHz. […] After the current was evoked for more than 40 s and no attenuation was determined, the dosing process started. […]
On the technique in general: The patch-clamp technique gives a direct electrical read-out from membranes.

T1 sequence (Q8NER1 whole entry, species assumed): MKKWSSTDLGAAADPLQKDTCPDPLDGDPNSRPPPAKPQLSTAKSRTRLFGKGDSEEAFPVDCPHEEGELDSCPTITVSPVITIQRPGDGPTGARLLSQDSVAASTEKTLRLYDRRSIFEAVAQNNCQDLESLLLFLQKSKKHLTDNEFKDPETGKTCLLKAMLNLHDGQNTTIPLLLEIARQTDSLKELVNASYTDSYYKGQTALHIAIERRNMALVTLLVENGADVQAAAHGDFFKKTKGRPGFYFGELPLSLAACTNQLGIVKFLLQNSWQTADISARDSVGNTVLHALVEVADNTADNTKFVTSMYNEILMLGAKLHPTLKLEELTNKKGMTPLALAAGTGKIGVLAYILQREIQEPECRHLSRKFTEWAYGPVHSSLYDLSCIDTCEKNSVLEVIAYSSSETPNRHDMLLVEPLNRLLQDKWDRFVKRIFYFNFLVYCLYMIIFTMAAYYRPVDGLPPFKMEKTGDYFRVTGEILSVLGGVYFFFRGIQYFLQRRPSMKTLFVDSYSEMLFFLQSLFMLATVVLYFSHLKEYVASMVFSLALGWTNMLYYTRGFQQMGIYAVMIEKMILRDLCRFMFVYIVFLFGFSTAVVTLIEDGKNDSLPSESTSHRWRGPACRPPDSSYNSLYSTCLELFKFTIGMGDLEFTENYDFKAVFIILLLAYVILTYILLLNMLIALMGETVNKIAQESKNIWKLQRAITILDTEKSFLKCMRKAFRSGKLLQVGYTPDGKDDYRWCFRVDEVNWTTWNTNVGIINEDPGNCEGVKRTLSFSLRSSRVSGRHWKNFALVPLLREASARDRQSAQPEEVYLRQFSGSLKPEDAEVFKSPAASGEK

On to `CNCC[C@H](Oc1cccc2ccoc12)c1cccs1` [IC-1, (S)-3-(Benzofuran-7-yloxy)-N-methyl-3-(thiophen-2-yl)propan-1-amine], for which, in the test with SD rats, the “PWT” value came to 7.869 ± 2.846 g. On TRPV1, this molecule yielded an inhibition at 10 µM of 22.5%.

For orientation: inhibition means the drop in the measured response relative to a control, in per cent.
